Measured values as given in patent publication US20240109873A1, “ANTAGONISTS OF THE MUSCARINIC ACETYLCHOLINE RECEPTOR M4” (Vanderbilt University, priority 2020, published 2024).
pIC50: −log10 of the molar value.

Target: T1, human mAChR M1 (Homo sapiens, UniProt P11229)
T1 construct: host or cells: CHO-K1 (ATCC), stably transfected
T1 sequence (P11229 1-460): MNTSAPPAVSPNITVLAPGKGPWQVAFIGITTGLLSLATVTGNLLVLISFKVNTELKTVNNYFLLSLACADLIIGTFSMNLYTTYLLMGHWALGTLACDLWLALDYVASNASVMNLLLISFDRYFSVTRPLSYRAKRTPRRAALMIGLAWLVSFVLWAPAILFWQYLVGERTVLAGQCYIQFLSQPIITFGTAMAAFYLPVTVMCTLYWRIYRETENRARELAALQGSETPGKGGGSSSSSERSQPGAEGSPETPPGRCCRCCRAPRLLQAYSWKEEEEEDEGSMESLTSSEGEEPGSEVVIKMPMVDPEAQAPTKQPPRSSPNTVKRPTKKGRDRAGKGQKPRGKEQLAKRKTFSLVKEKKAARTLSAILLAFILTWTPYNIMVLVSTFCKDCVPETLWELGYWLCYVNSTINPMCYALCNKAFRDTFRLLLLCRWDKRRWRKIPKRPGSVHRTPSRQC
Assay: mAChR M1 cell-based functional assay (calcium flux, antagonism of EC80 acetylcholine response, hM1 CHO-K1 cells)
Conditions: for Human M1 Emin: % ACh maximum at 30 μM; for pIC50: decrease of the response elicited by an EC80 concentration of acetylcholine, CHO-K1 cells
Procedure: hM1 cDNA was purchased from Missouri S&T cDNA Resource and used to stably transfect CHO-K1 cells purchased from the American Type Culture Collection using Lipofectamine2000. hM1 cells were grown in Ham's F-12 medium containing 10% heat-inactivated fetal bovine serum (FBS), 20 mM HEPES, and 50 μg/mL G418 sulfate.
For high throughput measurement of agonist-evoked increases in intracellular calcium, CHO-K1 cells stably expressing muscarinic receptors were plated in growth medium lacking G418 and hygromycin at 15,000 cells/20 μL/well in Greiner 384-well black-walled, tissue culture (TC)-treated, clear-bottom plates (VWR). Cells were incubated overnight at 37° C. and 5% CO2. The next day, cells were washed using an ELX 405 (BioTek) with four washes (80 μL) of assay buffer then aspirated to 20 μL. Next, 20 μL of 16 μM Fluo-4/acetoxymethyl ester (Invitrogen, Carlsbad, CA) prepared as a 2.3 mM stock in DMSO and mixed in a 1:1 ratio with 10% (w/v) Pluronic F-127 and diluted in assay buffer was added to the wells and the cell plates were incubated for 50 min at 37° C. and 5% CO2. Dye was removed by washing with the ELX 405 (four 80 μL washes of assay buffer) then aspirated to 20 μL. Compound master plates were formatted in an 11-point CRC format (1:3 dilutions) in 100% DMSO with a starting concentration of 10 mM using the BRAVO liquid handler (Agilent). Test compound CRCs were then transferred to daughter plates (240 nL) using the Echo acoustic plate reformatter (Labcyte, Sunnyvale, CA) and then diluted into assay buffer (40 μL) to a 2× stock using a Thermo Fisher Combi (Thermo Fisher Scientific, Waltham, MA).
Calcium flux was measured using the Functional Drug Screening System (FDSS) 6000 (Hamamatsu Corporation, Tokyo, Japan) as an increase in the fluorescent static ratio. Compounds were applied to cells (20 μL, 2×) using the automated system of the FDSS 6000 at 4 s into the 300 s protocol and the data were collected at 1 Hz. At 144 s into the 300 s protocol, 10 μL of an EC20 concentration of the muscarinic receptor agonist acetylcholine was added (5×), followed by the addition of 12 μL an EC80 concentration of acetylcholine at the 230 s time point (5×). Agonist activity was analyzed as a concentration-dependent increase in calcium mobilization upon compound addition. Emax values for agonist activity are expressed relative to the maximum for acetylcholine. Positive allosteric modulator activity was analyzed as a concentration-dependent increase in the EC20 acetylcholine response. Antagonist activity was analyzed as a concentration-dependent decrease in the EC80 acetylcholine response; for the purposes of the tables herein, an IC50 (inhibitory concentration 50) was calculated as a concentration-dependent decrease of the response elicited by an EC80 concentration of acetylcholine. […]
The above-described assay was also operated in a second mode where an appropriate fixed concentration of the present compounds were added to the cells after establishment of a fluorescence baseline for about 3 seconds, and the response in cells was measured. 140 s later the appropriate concentration of agonist was added and readings taken for an additional 106 s. Data were reduced as described above and the EC50 values for the agonist in the presence of test compound were determined by nonlinear curve fitting. […]

Human M1 Emin [%] | pIC50 | Structure (SMILES) | human mAChR M1 antagonist activity, comparison in words (compound 61 versus compound 62, from Table 3)
20 | < 5.00 | [2H]C([2H])([C@H]1CCOC(C)(C)C1)N1C[C@H]2C[C@H](Nc3ccc(-c4cccnc4C(F)(F)F)nn3)C[C@H]2C1 (single isomer, unassigned) [Compound 61] | less human mAChR M1 antagonist activity than compound 62
6 | 6.21 | [2H]C([2H])([C@@H]1CCOC(C)(C)C1)N1C[C@H]2C[C@H](Nc3ccc(-c4cccnc4C(F)(F)F)nn3)C[C@H]2C1 [Compound 62, (3aR,5s,6aS)-2-(((R)-2,2-dimethyltetrahydro-2H-pyran-4-yl)methyl-d2)-N-(6-(2-(trifluoromethyl)pyridin-3-yl)pyridazin-3-yl)octahydrocyclopenta[c]pyrrol-5-amine] | 
